“And” between values parts separate entries of the source, which are not always exact repeats. Equal entries are not always repeated.
Legend:
TK-10 = test: NCI single dose (10 µM) SRB screen; assay type: cell-based, human; conditions: renal cancer, 48 h
Escherichia coli = test: Agar well diffusion method
BT-549 = test: NCI single dose (10 µM) SRB screen; assay type: cell-based, human; conditions: breast cancer, 48 h
Bacillus subtilis = test: Agar well diffusion method
Candida albicans = test: Agar well diffusion method
SK-MEL-5 = test: NCI single dose (10 µM) SRB screen; assay type: cell-based, human; conditions: melanoma, 48 h
A549/ATCC = test: NCI single dose (10 µM) SRB screen; assay type: cell-based, human; conditions: non-small cell lung cancer, 48 h
COLO 205 = test: NCI single dose (10 µM) SRB screen; assay type: cell-based, human; conditions: colon cancer, 48 h
NCI-H322M = test: NCI single dose (10 µM) SRB screen; assay type: cell-based; conditions: non-small cell lung cancer, 48 h
Staphylococcus aureus = test: Agar well diffusion method
NCI-H23 = test: NCI single dose (10 µM) SRB screen; assay type: cell-based, human; conditions: non-small cell lung cancer, 48 h
LOX IMVI = test: NCI single dose (10 µM) SRB screen; assay type: cell-based, human; conditions: melanoma, 48 h
MDA-MB-468 = test: NCI single dose (10 µM) SRB screen; assay type: cell-based, human; conditions: breast cancer, 48 h
HCT-15 = test: NCI single dose (10 µM) SRB screen; assay type: cell-based, human; conditions: colon cancer, 48 h
HS578T = test: NCI single dose (10 µM) SRB screen; assay type: cell-based, human; conditions: breast cancer, 48 h
HL-60(TB) = test: NCI single dose (10 µM) SRB screen; assay type: cell-based, human; conditions: leukaemia, 48 h
PC-3 = test: NCI single dose (10 µM) SRB screen; assay type: cell-based, human; conditions: prostate cancer, 48 h
SK-MEL-2 = test: NCI single dose (10 µM) SRB screen; assay type: cell-based, human; conditions: melanoma, 48 h
UACC-257 = test: NCI single dose (10 µM) SRB screen; assay type: cell-based, human; conditions: melanoma, 48 h
NCI/ADR-RES = test: NCI single dose (10 µM) SRB screen; assay type: cell-based, human; conditions: ovarian cancer, 48 h
EKVX = test: NCI single dose (10 µM) SRB screen; assay type: cell-based, human; conditions: non-small cell lung cancer, 48 h
SNB-19 = test: NCI single dose (10 µM) SRB screen; assay type: cell-based, human; conditions: CNS cancer, 48 h
NCI-H226 = test: NCI single dose (10 µM) SRB screen; assay type: cell-based, human; conditions: non-small cell lung cancer, 48 h
A498 = test: NCI single dose (10 µM) SRB screen; assay type: cell-based, human; conditions: renal cancer, 48 h
KM12 = test: NCI single dose (10 µM) SRB screen; assay type: cell-based, human; conditions: colon cancer, 48 h
CCRF-CEM = test: NCI single dose (10 µM) SRB screen; assay type: cell-based, human; conditions: leukaemia, 48 h
HT29 = test: NCI single dose (10 µM) SRB screen; assay type: cell-based, human; conditions: colon cancer, 48 h
SR = test: NCI single dose (10 µM) SRB screen; assay type: cell-based, human; conditions: leukaemia, 48 h
SW-620 = test: NCI single dose (10 µM) SRB screen; assay type: cell-based, human; conditions: colon cancer, 48 h
CAKI-1 = test: NCI single dose (10 µM) SRB screen; assay type: cell-based, human; conditions: renal cancer, 48 h
M14 = test: NCI single dose (10 µM) SRB screen; assay type: cell-based, human; conditions: melanoma, 48 h
MOLT-4 = test: NCI single dose (10 µM) SRB screen; assay type: cell-based, human; conditions: leukaemia, 48 h
UO-31 = test: NCI single dose (10 µM) SRB screen; assay type: cell-based, human; conditions: renal cancer, 48 h
ACHN = test: NCI single dose (10 µM) SRB screen; assay type: cell-based, human; conditions: renal cancer, 48 h
HOP-62 = test: NCI single dose (10 µM) SRB screen; assay type: cell-based, human; conditions: non-small cell lung cancer, 48 h
SNB-75 = test: NCI single dose (10 µM) SRB screen; assay type: cell-based, human; conditions: CNS cancer, 48 h
U251 = test: NCI single dose (10 µM) SRB screen; assay type: cell-based, human; conditions: CNS cancer, 48 h
HOP-92 = test: NCI single dose (10 µM) SRB screen; assay type: cell-based, human; conditions: non-small cell lung cancer, 48 h
NCI 60 cancer cell lines = test: NCI single dose (10 µM) SRB screen, mean over panel; assay type: cell-based, human; conditions: mean over 60 cell lines, 48 h
SF-295 = test: NCI single dose (10 µM) SRB screen; assay type: cell-based, human; conditions: CNS cancer, 48 h
SF-268 = test: NCI single dose (10 µM) SRB screen; assay type: cell-based, human; conditions: CNS cancer, 48 h
MALME-3M = test: NCI single dose (10 µM) SRB screen; assay type: cell-based, human; conditions: melanoma, 48 h
UACC-62 = test: NCI single dose (10 µM) SRB screen; assay type: cell-based, human; conditions: melanoma, 48 h
MDA-MB-231 = test: NCI single dose (10 µM) SRB screen; assay type: cell-based, human; conditions: breast cancer, 48 h
RPMI-8226 = test: NCI single dose (10 µM) SRB screen; assay type: cell-based, human; conditions: leukaemia, 48 h
SK-OV-3 = test: NCI single dose (10 µM) SRB screen; assay type: cell-based, human; conditions: ovarian cancer, 48 h
MCF7 = test: NCI single dose (10 µM) SRB screen; assay type: cell-based, human; conditions: breast cancer, 48 h
MDA-MB-435 = test: NCI single dose (10 µM) SRB screen; assay type: cell-based, human; conditions: melanoma, 48 h
DU-145 = test: NCI single dose (10 µM) SRB screen; assay type: cell-based, human; conditions: prostate cancer, 48 h
NCI-H522 = test: NCI single dose (10 µM) SRB screen; assay type: cell-based, human; conditions: non-small cell lung cancer, 48 h
HCC-2998 = test: NCI single dose (10 µM) SRB screen; assay type: cell-based, human; conditions: colon cancer, 48 h
HCT-116 = test: NCI single dose (10 µM) SRB screen; assay type: cell-based, human; conditions: colon cancer, 48 h

CCOC(=O)C1=C(C)NC(C)=C(C(=O)OC)C1c1cccc(C#N)c1 (racemic) [Compound 2g, (±)-3-Ethyl 5-methyl 4-(3-cyanophenyl)-2,6-dimethyl-1,4-dihydropyridine-3,5-dicarboxylate]
GI% TK-10 (TK-10): – (Only GI% ≥ 10 are shown) | zone of inhibition at 1000 µg/mL (Escherichia coli; Escherichia coli, 24 h, read-out: Diameter of inhibition zone, E. coli): 19 mm | % activity index, E. coli (Escherichia coli; relative to ciprofloxacin): 73% and 73.1% | GI% BT-549 (BT-549): – (Only GI% ≥ 10 are shown) | zone of inhibition at 1000 µg/mL (Bacillus subtilis; Bacillus subtilis, 24 h, read-out: Diameter of inhibition zone, B. subtilis): 19 mm | % activity index, B. subtilis (Bacillus subtilis; relative to ciprofloxacin): 82% and 82.6% | zone of inhibition at 1000 µg/mL (Candida albicans; Candida albicans, 24 h, read-out: Diameter of inhibition zone, C. albicans): 23 mm | % activity index, C. albicans (Candida albicans; relative to clotrimazole): 85% and 85.2% | GI% SK-MEL-5 (SK-MEL-5): – (Only GI% ≥ 10 are shown) | GI% A549/ATCC (A549/ATCC): – (Only GI% ≥ 10 are shown) | GI% COLO 205 (COLO 205): – (Only GI% ≥ 10 are shown) | GI% NCI-H322M (NCI-H322M): – (Only GI% ≥ 10 are shown) | zone of inhibition at 1000 µg/mL (Staphylococcus aureus; Staphylococcus aureus, 24 h, read-out: Diameter of inhibition zone, S. aureus): 22 mm | % activity index, S. aureus (Staphylococcus aureus; relative to ciprofloxacin): 91% and 91.7% | GI% NCI-H23 (NCI-H23): – (Only GI% ≥ 10 are shown) | GI% LOX IMVI (LOX IMVI): – (Only GI% ≥ 10 are shown) | GI% MDA-MB-468 (MDA-MB-468): – (Only GI% ≥ 10 are shown) | GI% HCT-15 (HCT-15): – (Only GI% ≥ 10 are shown) | GI% HS578T (HS578T): 10% | GI% HL-60(TB) (HL-60(TB)): – (Only GI% ≥ 10 are shown) | GI% PC-3 (PC-3): – (Only GI% ≥ 10 are shown) | GI% SK-MEL-2 (SK-MEL-2): – (Only GI% ≥ 10 are shown) | GI% UACC-257 (UACC-257): – (Only GI% ≥ 10 are shown) | GI% NCI/ADR-RES (NCI/ADR-RES): – (Only GI% ≥ 10 are shown) | GI% EKVX (EKVX): – (Only GI% ≥ 10 are shown) | GI% SNB-19 (SNB-19): – (Only GI% ≥ 10 are shown) | GI% NCI-H226 (NCI-H226): – (Only GI% ≥ 10 are shown) | GI% A498 (A498): – (Only GI% ≥ 10 are shown) | GI% KM12 (KM12): – (Only GI% ≥ 10 are shown) | GI% CCRF-CEM (CCRF-CEM): – (Only GI% ≥ 10 are shown) | GI% HT29 (HT29): – (Only GI% ≥ 10 are shown) | GI% SR (SR): 14% | GI% SW-620 (SW-620): – (Only GI% ≥ 10 are shown) | GI% CAKI-1 (CAKI-1): – (Only GI% ≥ 10 are shown) | GI% M14 (M14): – (Only GI% ≥ 10 are shown) | GI% MOLT-4 (MOLT-4): – (Only GI% ≥ 10 are shown) | GI% UO-31 (UO-31): – (Only GI% ≥ 10 are shown) | GI% ACHN (ACHN): – (Only GI% ≥ 10 are shown) | GI% HOP-62 (HOP-62): – (Only GI% ≥ 10 are shown) | GI% SNB-75 (SNB-75): – (Only GI% ≥ 10 are shown) | GI% U251 (U251): – (Only GI% ≥ 10 are shown) | GI% HOP-92 (HOP-92): – (Only GI% ≥ 10 are shown) | Mean GI% (NCI 60 cancer cell lines): −1% | GI% SF-295 (SF-295): – (Only GI% ≥ 10 are shown) | GI% SF-268 (SF-268): – (Only GI% ≥ 10 are shown) | GI% MALME-3M (MALME-3M): – (Only GI% ≥ 10 are shown) | GI% UACC-62 (UACC-62): – (Only GI% ≥ 10 are shown) | GI% MDA-MB-231 (MDA-MB-231): – (Only GI% ≥ 10 are shown) | GI% RPMI-8226 (RPMI-8226): – (Only GI% ≥ 10 are shown) | GI% SK-OV-3 (SK-OV-3): – (Only GI% ≥ 10 are shown) | GI% MCF7 (MCF7): 11% | GI% MDA-MB-435 (MDA-MB-435): – (Only GI% ≥ 10 are shown) | GI% DU-145 (DU-145): – (Only GI% ≥ 10 are shown) | GI% NCI-H522 (NCI-H522): – (Only GI% ≥ 10 are shown) | GI% HCC-2998 (HCC-2998): – (Only GI% ≥ 10 are shown) | GI% HCT-116 (HCT-116): – (Only GI% ≥ 10 are shown)
